From US7659270B2, “Hepatitis C virus inhibitors” (Bristol-Myers Squibb Company, priority 2006, dated 2010)

Test system: HCV 1b-377-neo replicon cells
Experiment: HCV replicon assay (HCV 1b-377-neo replicon cells)
Type: cell-based, Hepatitis C virus genotype 1b
Design: EC50 range against HCV 1b (Range): scale not given here
Conditions: for EC50: Hepatitis C virus, read-out: EC50 range against HCV 1b (Range)
How it was run: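 HCV genotype 1b (1b-377-neo) replicon cells, run as a validated replicon assay; parallel testing in replicon cells carrying the NS5A Y2065H resistance mutation.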

Work on `COC(=O)NC(C(=O)N1CCC[C@H]1c1ncc(-c2cnc(-c3ccc(-c4[nH]c([C@@H]5CCCN5C(=O)C(NC(=O)OC)c5ccccc5)nc4C(F)(F)F)cc3)nc2)[nH]1)c1ccccc1` (stereo partly drawn) [Example J46, methyl ((1R)-2-((2S)-2-(5-(4-(5-(2-((2S)-1-((2R)-2-((methoxy-carbonyl)amino)-2-phenylacetyl)-2-pyrrolidinyl)-1H-imidazol-5-yl)-2-pyrimi-dinyl)phenyl)-4-(trifluoromethyl)-1H-imida-zol-2-yl)-1-pyrrolidinyl)-2-oxo-1-phenyleth-yl)carbamate] yielded an EC50 of 10 to 999 pM.
With `COC(=O)N[C@H](C(=O)N1CCC[C@H]1c1ncc(-c2ccc(-c3ccc(-c4cnc([C@@H]5CCCN5C(=O)[C@@H](Nc5ncccn5)C(C)C)[nH]4)cc3)cc2)[nH]1)C(C)C` [cj-11, methyl((1S)-2-methyl-1-(((2S)-2-(5-(4′-(2-((2S)-1-(N-2-pyrimidinyl-L-valyl)-2-pyrrolidinyl)-1H-imidazol-5-yl)-4-biphenylyl)-1H-imidazol-2-yl)-1-pyrrolidinyl)carbonyl)propyl)carbamate] the EC50 was 10 to 999 pM.
`COC(=O)N[C@@H](C(=O)N(C)[C@@H](C)c1ncc(-c2ccc(-c3ccc(-c4cnc([C@@H]5CCCN5C(=O)[C@@H](c5ccccc5)N5CCCCC5)[nH]4)cc3)cc2)[nH]1)c1ccccc1` [Example 131.1-2, methyl((1R)-2-(methyl((1S)-1-(5-(4′-(2-((2S)-1-((2R)-2-phenyl-2-(1-piperidinyl)acetyl)-2-pyrrolidinyl)-1H-imidazol-5-yl)-4-biphenylyl)-1H-imidazol-2-yl)ethyl)amino)-2-oxo-1-phenylethyl)carbamate] was tested, and the EC50 was 10 to 999 pM.
With `O=C([C@@H](c1ccccc1)N1CCCCC1)N1CCC[C@H]1c1ncc(-c2ccc(-c3ncc(-c4cnc([C@@H]5CCCN5C(=O)[C@@H](c5ccccc5)N5CCCCC5)[nH]4)cn3)cc2)[nH]1` [Example 152j-5, 5-(2-((2S)-1-((2R)-2-phenyl-2-(1-piperidinyl)acetyl)-2-pyrrolidinyl)-1H-imidazol-5-yl)-2-(4-(2-((2S)-1-((2R)-2-phenyl-2-(1-piperidinyl)acetyl)-2-pyrrolidinyl)-1H-imidazol-4-yl)phenyl)pyrimidine] the EC50 was 10 to 999 pM.
`COC(=O)N[C@@H](C(=O)N[C@@H](C)c1ncc(-c2ccc(-c3ccc(-c4cnc([C@@H]5CCCN5C(=O)[C@H](NC(=O)OC)c5ccccc5)[nH]4)cc3)nc2)[nH]1)c1ccccc1` [Example 152j-22, methyl ((1R)-2-((2S)-2-(5-(4-(5-(2-((1S)-1-(((2R)-2-((methoxycarbonyl)a-mino)-2-phenyl-acetyl)amino)eth-yl)-1H-imidazol-5-yl)-2-pyridinyl)phenyl)-1H-imidazol-2-yl)-1-pyrrolidinyl)-2-oxo-1-phenylethyl)carbamate] showed an EC50 of 10 to 999 pM.
`CC(=O)N[C@@H](C(=O)N1CCC[C@H]1c1ncc(-c2ccc(-c3ccc(-c4cnc([C@@H]5CCCN5C(=O)[C@H](NC(C)=O)c5ccccc5)[nH]4)cn3)cc2)[nH]1)c1ccccc1` [Example 139, N-((1R)-2-((2S)-2-(5-(6-(4-(2-((2S)-1-((2R)-2-acetamido-2-phenylacetyl)-2-pyrrolidinyl)-1H-imidazol-5-yl)phenyl)-3-pyridinyl)-1H-imidazol-2-yl)-1-pyrrolidinyl)-2-oxo-1-phenylethyl)acetamide] gave an EC50 of 10 to 999 pM.
`COC(=O)N[C@H](C(=O)N1CCC[C@H]1c1ncc(-c2ccc(-c3ccc(-c4cnc([C@@H]5CCCN5C(=O)[C@@H](NC(=NC#N)N(C)C)C(C)C)[nH]4)cc3)cc2)[nH]1)C(C)C` [cj-17, methyl((1S)-1-(((2S)-2-(5-(4′-(2-((2S)-1-(N-(cyano(dimethyl)carbamimidoyl)-L-valyl)-2-pyrrolidinyl)-1H-imidazol-5-yl)-4-biphenylyl)-1H-imidazol-2-yl)-1-pyrrolidinyl)carbonyl)-2-methylpropyl)carbamate] gave an EC50 of 10 to 999 pM.
For `CN(C)[C@@H](C(=O)N1CCC[C@H]1c1ncc(-c2ccc(-c3cnc(-c4cnc([C@@H]5CCCN5C(=O)[C@@H](c5ccccc5)N(C)C)[nH]4)cn3)cc2)[nH]1)c1ccccc1` [Example 152j-7, (1R)-2-((2S)-2-(5-(5-(4-(2-((2S)-1-((2R)-2-(dimethylamino)-2-phenylacetyl)-2-pyrrolidinyl)-1H-imidazol-5-yl)phenyl)-2-pyrazinyl)-1H-imidazol-2-yl)-1-pyrrolidinyl)-N,N-dimethyl-2-oxo-1-phenylethanamine], the EC50 was 1000 to 99000 pM.
With `COC(=O)N[C@@H](C(=O)N1CCC[C@H]1c1ncc(-c2ccc(-c3ccc(-c4cnc([C@@H]5CCCN5C(=O)[C@H](NC(=O)OC)c5ccccc5)[nH]4)cc3CN(C)C)cc2)[nH]1)c1ccccc1` [Example M121, dimethyl((2-((dimethylamino)methyl)-4,4′-biphenyldiyl)bis(1H-imidazole-5,2-diyl(2S)-2,1-pyrrolidinediyl((1R)-2-oxo-1-phenyl-2,1-ethanediyl)))biscarbamate] the EC50 was 100000 to 999000 pM.
For `COC(=O)N[C@H](C(=O)N1CCC[C@H]1c1ncc(-c2ccc(-c3ccc(-c4cnc([C@@H]5CCCN5C(=O)[C@@H](NC(=O)OC)C(C)C)[nH]4)cc3C(N)=O)cc2)[nH]1)C(C)C` [Example M118, methyl((1S)-1-(((2S)-2-(5-(2′-carbamoyl-4′-(2-((2S)-1-((2S)-2-((methoxycarbonyl)amino)-3-methylbutanoyl)-2-pyrrolidinyl)-1H-imidazol-5-yl)-4-biphenylyl)-1H-imidazol-2-yl)-1-pyrrolidinyl)carbonyl)-2-methylpropyl)carbamate], the “EC50 range against HCV 1b (Range)” value was “>A”.
`COC(=O)N[C@@H](C(=O)N[C@@H](C)c1ncc(-c2ccc(-c3ccc(-c4cnc([C@@H]5CCCN5C(=O)[C@H](NC(=O)OC)c5ccccc5)[nH]4)cn3)cc2)[nH]1)c1ccccc1` [Example 152j-12, methyl ((1R)-2-((2S)-2-(5-(6-(4-(2-((1S)-1-(((2R)-2-((methoxycarbonyl)a-mino)-2-phenyl-acetyl)amino)eth-yl)-1H-imidazol-5-yl)phenyl)-3-pyridinyl)-1H-imidazol-2-yl)-1-pyrrolidinyl)-2-oxo-1-phenylethyl)carbamate] showed an EC50 of 10 to 999 pM.
With `C[C@H](NC(=O)[C@@H](c1ccccc1)N(C)C)c1ncc(-c2ccc(-c3ccc(-c4cnc([C@@H]5CCCN5C(=O)[C@@H](c5ccccc5)N(C)C)[nH]4)cn3)cc2)[nH]1` [Example 152j-11, (2R)-2-(dimethylamino)-N-((1S)-1-(5-(4-(5-(2-((2S)-1-((2R)-2-(dimethylamino)-2-phenylacetyl)-2-pyrrolidinyl)-1H-imidazol-5-yl)-2-pyridinyl)phenyl)-1H-imidazol-2-yl)ethyl)-2-phenylacetamide] the EC50 was 10 to 999 pM.
Work on `COC(=O)N[C@@H](C(=O)N[C@@H](C)c1ncc(-c2ccc(-c3ncc(-c4cnc([C@@H]5CCCN5C(=O)[C@@H](c5ccccc5)N5CCCCC5)[nH]4)cn3)cc2)[nH]1)c1ccccc1` [Example 152l-2, methyl ((1R)-2-oxo-1-phen-yl-2-(((1S)-1-(4-(4-(5-(2-((2S)-1-((2R)-2-phenyl-2-(1-piperi-dinyl)acetyl)-2-pyrrolidinyl)-1H-imidazol-5-yl)-2-pyrimi-dinyl)phenyl)-1H-imidazol-2-yl)eth-yl)amino)ethyl)car-bamate] yielded an EC50 of 10 to 999 pM.
`CCN(CC)[C@H](C)C(=O)N1CCC[C@H]1c1ncc(-c2cnc(-c3ccc(-c4[nH]c([C@@H]5CCCN5C(=O)[C@H](C)N(CC)CC)nc4C(F)(F)F)cc3)nc2)[nH]1` [Example J51, (2R)-1-((2S)-2-(5-(4-(5-(2-((2S)-1-((2R)-2-(diethyl-amino)prop-anoyl)-2-pyrrolidinyl)-1H-imidazol-5-yl)-2-pyrimi-dinyl)phenyl)-4-(trifluoromethyl)-1H-imida-zol-2-yl)-1-pyrrolidinyl)-N,N-dieth-yl-1-oxo-2-propanamine] showed an EC50 of 1000 to 99000 pM.
For `COC(=O)N[C@@H](C(=O)N1CCC[C@H]1c1ncc(-c2ccc(-c3ccc(-c4cnc([C@@H]5CCCN5C(=O)[C@H](NC(=O)OC)c5ccccc5)[nH]4)cc3C)nc2)[nH]1)c1ccccc1` [Example 138, methyl((1R)-2-((2S)-2-(5-(6-(4-(2-((2S)-1-((2R)-2-((methoxycarbonyl)amino)-2-phenylacetyl)-2-pyrrolidinyl)-1H-imidazol-5-yl)-2-methylphenyl)-3-pyridinyl)-1H-imidazol-2-yl)-1-pyrrolidinyl)-2-oxo-1-phenylethyl)carbamate], the EC50 was 10 to 999 pM.
With `C[C@H](NC(=O)[C@@H](c1ccccc1)N(C)C)c1ncc(-c2ccc(-c3ccc(-c4cnc([C@H](C)NC(=O)[C@@H](c5ccccc5)N(C)C)[nH]4)cn3)cc2)[nH]1` [Example 152j-24, (2R)-2-(dimethylamino)-N-((1S)-1-(5-(6-(4-(2-((1S)-1-(((2R)-2-(dimethylamino)-2-phenyl-acetyl)amino)eth-yl)-1H-imidazol-5-yl)phenyl)-3-pyridinyl)-1H-imidazol-2-yl)ethyl)-2-phenylacetamide] the EC50 was 10 to 999 pM.
In the case of `C[C@H](NC(=O)[C@@H](c1ccccc1)N(C)C)c1ncc(-c2cnc(-c3ccc(-c4cnc([C@@H]5CCCN5C(=O)[C@@H](c5ccccc5)N(C)C)[nH]4)cc3)nc2)[nH]1` [Example 152j-16, (2R)-2-(dimethylamino)-N-((1S)-1-(5-(2-(4-(2-((2S)-1-((2R)-2-(dimethylamino)-2-phenylacetyl)-2-pyrrolidinyl)-1H-imidazol-5-yl)phenyl)-5-pyrimidinyl)-1H-imidazol-2-yl)ethyl)-2-phenylacetamide], the EC50 is reported as 10 to 999 pM.
Molecule `COC(=O)N[C@@H](C(=O)N1CCC[C@H]1c1ncc(-c2ccc(-c3ccc(-c4cnc([C@@H]5CCCN5C(=O)[C@H](NC(=O)OC)c5ccccc5)[nH]4)nn3)nn2)[nH]1)c1ccccc1` [Example 153c-2, dimethyl (3,3′-bipyrida-zine-6,6′-diylbis(1H-imi-dazole-5,2-diyl(2S)-2,1-pyrrolidine-diyl((1R)-2-oxo-1-phenyl-2,1-ethane-diyl)))biscarba-mate] has an EC50 of 1000 to 99000 pM.
